Test results taken from PMC6198510, “Switching Between Bicyclic and Linear Peptides — The Sulfhydryl-Specific Linker TPSMB Enables Reversible Cyclization of Peptides” (Frontiers in Chemistry, 2018).
Read-outs that look alike come from different tables or passages of the source. Starred links: 1 amine or outer side, 2 acyl side, 3 side chain; linkers in the order of their positions; H or OH if unused. Positions of bridges follow the written chain, without caps; N, C: chain ends. Residues, ends and D or L forms follow the SMILES beside them. Benzene(1,3,5-(CH2S)3) = c1c(CS[*:1])cc(CS[*:3])cc1CS[*:2]

Legend:
JNK3 [1] = target: T1, JNK3 (Homo sapiens, UniProt P53779); assay: competitive fluorescence polarization assay (displacement of PIT0105006); assay type: binding; conditions: competitive FP
T1 construct: 39-402 was performed as described in literature; made in house
T1 sequence (P53779 39-402 limits assumed): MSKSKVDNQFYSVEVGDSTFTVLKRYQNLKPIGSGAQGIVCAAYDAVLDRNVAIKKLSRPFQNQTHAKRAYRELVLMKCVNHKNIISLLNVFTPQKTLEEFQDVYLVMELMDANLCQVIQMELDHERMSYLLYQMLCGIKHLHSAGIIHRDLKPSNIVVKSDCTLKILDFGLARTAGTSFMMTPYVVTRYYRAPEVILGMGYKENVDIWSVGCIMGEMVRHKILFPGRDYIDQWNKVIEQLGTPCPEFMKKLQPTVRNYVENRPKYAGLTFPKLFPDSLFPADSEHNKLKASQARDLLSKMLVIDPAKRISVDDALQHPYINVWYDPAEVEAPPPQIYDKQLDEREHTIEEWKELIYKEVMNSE
Experimental: (§1) VII: Expression and Purification of JNK3
(§2) The expression and purification of JNK3339-402 was performed as described in literature. [Lange, A.; Günther, M.; Büttner, F. M.; Zimmermann, M. O.; Heidrich, J.; Hennig, S.; Zahn, S.; Schall, C.; Sievers-Engler, A.; Ansideri, F.; et al. Targeting the Gatekeeper MET146 of C-Jun N-Terminal Kinase 3 Induces a Bivalent Halogen/Chalcogen Bond. Journal of the American Chemical Society 2015, 137
(§3) VIII: Fluorescence polarization assay
Fluorescence polarization assays were performed in 96-wellplates (black, non-binding, Greiner bio-one). The measurements were performed in a CLARIOstar microplate reader (BMG Labtech, Ortenberg, Germany; excit. filter: 480 nm and an emiss. filter: 530 nm). Purified JNK3 was diluted in buffer (HEPES-Buffer, 25 mM) containing additional 0.1 mg/mL BSA. […]
The KD was obtained by curve fit based on eleven protein concentrations. For competitive binding fluorescence polarization experiments, sample concentrations between 200 μM and 10 nM were measured in triplicates. A steady concentration of 10 nM was used for JNK3 and of 5 nM for the fluorescein-labelled compound PIT0105006 (KD= 3.0 ± 0.2 nM). [Ansideri, F.; Lange, A; El-Gokha […]
A.; Boeckler F. M.; Koch, P. Fluorescence polarization-based assays for detecting compounds binding […]
503, 28-40.]Control measurements were performed with PIT0104002 (concentration between 10 μM […]
(§4) For all experiments DMSO (>99.5% (GC)) was […]
(§5) consistently used with a steady concentration of 5% (v/v). Before each measurement, the plates were shaked at 350 rpm for 30 min at room temperature on a plate shaker (Eppendorf MixMate). Before the measurement, the plates were incubated within the microplate reader for 2 min at 25°C and the focal height was adjusted to yield the optimal fluorescence intensity. Measured data was plotted and KD values were obtained by curve fitting of a standard four parameter logistic nonlinear regression model using the program Origin 9.1.
IX: Fluorescence polarization data […]
Table S3: Overview of the results obtained in competitive fluorescence polarization assays. a Conversion of obtained IC50 mean values to KI were performed using a web-based application available at: http://sw16.im.med.umich.edu/software/calc_ki/ (19.07.2018) [Cer, R. Z., Mudunuri, U., Stephens, R., & Lebeda, F. J. (2009). IC50-to-Ki: a web-based tool for converting IC50 to Ki values for inhibitors of enzyme activity and ligand binding. Nucleic Acids Research, 37(Web Server issue), W441–W445], SE = standard error from curve fit. […]

JNK3 [2] = target: T1, JNK3; assay: direct titration fluorescence polarization assay; assay type: binding; conditions: direct titration FP
Experimental: as §1, §2, §3
Fluorescence polarization assays were performed in 96-wellplates (black, non-binding, Greiner bio-one). The measurements were performed in a CLARIOstar microplate reader (BMG Labtech, Ortenberg, Germany; excit. filter: 480 nm and an emiss. filter: 530 nm). Purified JNK3 was diluted in buffer (HEPES-Buffer, 25 mM) containing additional 0.1 mg/mL BSA. In the case of direct binding fluorescence polarization experiments, each protein concentration with a maximum concentration between 5 μM and 200 μM and a minimum concentration between 0.08 nM – 0.76 nM was measured in triplicates. The KD was obtained by curve fit based on eleven protein concentrations. […]
as §4, §5
IX: Fluorescence polarization data
Table S2: Overview of the results obtained in direct titration fluorescence polarization assays.
SE = standard error from curve fit, SD = standard deviation from experiments 1-3. […]
Nucleic Acids Research, 37(Web Server issue), W441–W445], SE = standard error from curve fit. […]

[3] = converted from mean IC50 with web-based IC50-to-Ki tool, read-out: KI
[4] = unlabeled TPSMB bicyclic peptide displacing 5 nM PIT0105006 from 10 nM JNK3, 200 μM-10 nM in triplicates, 5% DMSO, 25°C, experiment 1, read-out: IC50 Exp. 1
[5] = fluorescein-labeled TPSMB-modified bicyclic peptide, JNK3 titrated, eleven protein concentrations in triplicates, 25 mM HEPES, 0.1 mg/mL BSA, 5% DMSO, 25°C, mean of experiments 1-3 (JK16, JK18: one experiment), read-out: Mean KD
[6] = unlabeled TPSMB bicyclic peptide, mean of experiments 1-2 (JK20: one experiment), read-out: Mean IC50

Ki (JNK3 [1]; [3]) [µM] | Ki (JNK3 [1]; single experiment with IC50 = 15.6 μM, read-out: KI (Figure 5B)) [µM] | IC50 (JNK3 [1]; [4]) [µM] | IC50 (JNK3 [1]; unlabeled TPSMB bicyclic peptide displacing 5 nM PIT0105006 from 10 nM JNK3, experiment 2, read-out: IC50 Exp. 2) [µM] | Kd (JNK3 [2]; [5]) [µM] | IC50 (JNK3 [1]; [6]) [µM] | Kd (JNK3 [2]; fluorescein-labeled unmodified linear peptide, without cyclisation by TPSMB, curve fit (SE: 250 μM), read-out: KD of linear peptide) [µM] | SMILES
6.6 | 3.6 | 15.6 | 41.3 | 1.7 ± 0.8 |  |  | CSCC[C@@H]1NC(=O)[C@@H]2CSSCc3cc(cc(c3)CSSC[C@@H](C(=O)NCC(N)=O)NC(=O)[C@H](Cc3c[nH]c4ccccc34)NC(=O)[C@H](CCCNC(=N)N)NC(=O)[C@H](Cc3ccc(O)cc3)NC(=O)[C@H](CC(=O)O)NC(=O)[C@H](Cc3ccccc3)NC1=O)CSSC[C@H](NC(=O)[C@H](C)N)C(=O)N[C@@H](CC(=O)O)C(=O)N[C@@H](CC(=O)O)C(=O)N[C@@H](CCC(N)=O)C(=O)N[C@@H](Cc1c[nH]c3ccccc13)C(=O)N[C@@H](CCC(=O)O)C(=O)N[C@@H](Cc1ccc(O)cc1)C(=O)N2 [JK1-TPSMB] (H-ACDDQWEYCMFDYRWCG-NH2; linker 2-9-16 via Benzene(1,3,5-(CH2S)3))
6.6 |  |  |  | 1.7 ± 0.8 | 28.4 | ~390 | CSCC[C@H](NC(=O)[C@H](CS)NC(=O)[C@H](Cc1ccc(O)cc1)NC(=O)[C@H](CCC(=O)O)NC(=O)[C@H](Cc1c[nH]c2ccccc12)NC(=O)[C@H](CCC(N)=O)NC(=O)[C@H](CC(=O)O)NC(=O)[C@H](CC(=O)O)NC(=O)[C@H](CS)NC(=O)[C@H](C)N)C(=O)N[C@@H](Cc1ccccc1)C(=O)N[C@@H](CC(=O)O)C(=O)N[C@@H](Cc1ccc(O)cc1)C(=O)N[C@@H](CCCNC(=N)N)C(=O)N[C@@H](Cc1c[nH]c2ccccc12)C(=O)N[C@@H](CS)C(=O)NCC(N)=O [JK1] (H-ACDDQWEYCMFDYRWCG-NH2)
5.5 |  |  |  |  | 23.6 |  | CC(C)C[C@@H]1NC(=O)[C@H](CC(=O)O)NC(=O)[C@H](CCC(=O)O)NC(=O)[C@@H]2CSSCc3cc(cc(c3)CSSC[C@@H](C(=O)NCC(N)=O)NC(=O)[C@H](CC(=O)O)NC(=O)[C@H](CC(=O)O)NC(=O)[C@H](CC(N)=O)NC1=O)CSSC[C@H](NC(=O)[C@H](C)N)C(=O)N[C@@H](Cc1ccccc1)C(=O)N[C@@H](Cc1c[nH]c3ccccc13)C(=O)N[C@@H](Cc1c[nH]c3ccccc13)C(=O)N[C@@H](Cc1ccccc1)C(=O)NCC(=O)N[C@@H](C)C(=O)N2 [JK10-TPSMB] (H-ACFWWFGACEDLNDDCG-NH2; linker 2-9-16 via Benzene(1,3,5-(CH2S)3))
6.5 |  | 27.8 |  |  | 27.8 |  | CC[C@H](C)[C@@H]1NC(=O)[C@H](CCC(=O)O)NC(=O)[C@H](CC(=O)O)NC(=O)[C@H](Cc2c[nH]cn2)NC(=O)[C@@H](NC(=O)[C@H](C)N)CSSCc2cc3cc(c2)CSSC[C@H](NC(=O)[C@H]([C@@H](C)O)NC(=O)[C@H](Cc2c[nH]c4ccccc24)NC1=O)C(=O)N[C@@H](C(C)C)C(=O)N[C@@H](Cc1ccccc1)C(=O)N[C@@H](Cc1c[nH]cn1)C(=O)N[C@@H](CC(=O)O)C(=O)N[C@@H](CCC(=O)O)C(=O)N[C@@H](Cc1ccccc1)C(=O)N[C@H](C(=O)NCC(N)=O)CSSC3 [JK20-TPSMB] (H-ACHDEIWTCVFHDEFCG-NH2; linker 2-9-16 via Benzene(1,3,5-(CH2S)3))
